Measured values reported in PMC3325938, “Activity of Clinically Relevant Antimalarial Drugs on Plasmodium falciparum Mature Gametocytes in an ATP Bioluminescence “Transmission Blocking” Assay” (PLoS ONE, 2012).
Converted amounts (≈) assume the structure as drawn. Read-outs that look alike come from different tables or passages of the source.

Assays:
[1] = system: P. falciparum asexual forms (3D7A); test: In vitro antiplasmodial activity on asexual stages (uptake of radiolabeled nucleic acid precursor), 3D7A; assay type: cell-based, Plasmodium falciparum; settings: read-out: IC50 Activity against asexual forms (3D7A)
Protocol: (§1) IC50 values were measured as previously reported but all of the tests were done with serum-free cultures (using AlbuMAX II)

[2] = system: P. falciparum stage IV–V gametocytes (3D7HT-GFP strain); test: microbe, parasite or virus in culture; assay type: cell-based, Plasmodium falciparum
Protocol: Once purified, gametocytes were counted using a Neubauer chamber. Gametocytes (5×10^4 gametocytes per well) were transferred to a 96-well plate in a final volume of 100 µL, and dilutions of each drug were added (final DMSO concentration 0.5%). Plates were incubated (at 37°C in a 5% CO2 humidified incubator) for 48 h. The ATP level of each well was determined using the BacTiter-Glo™ reagent (Promega) according to manufacturer's recommendations. The BacTiter-Glo™ assay generates a “glow-type” luminescent signal produced by the luciferase reaction, which consists of mono-oxygenation of luciferin catalyzed by luciferase in the presence of Mg2+, ATP, and molecular oxygen.

[3] = Cytotoxicity, resazurin-based reductase assay; assay type: cell-based, human; settings: human, HepG2, 48 h exposure, resazurin, mean ± SD, 3–6 independent experiments
Protocol: (§2) Cells were grown and maintained in EMEM (Sigma-Aldrich) supplemented with 2 mM L-glutamine (Sigma-Aldrich) and 10% fetal calf serum (Perbio). […] For cytotoxicity experiments, cells were seeded onto 96-well clear bottom black plates coated with type I collagen (Biocoat, Becton Dickinson) at a cell density of 10000 cells/well.
(§3) The culture medium was as described above, but supplemented with 5% fetal calf serum. Following the 48 h exposure period, a 0.004% resazurin solution was prepared by adding 60 mL of Dulbecco's PBS to each resazurin tablet (VWR International). The tablet was allowed to dissolve by placing the container in a bath maintained at 37°C, protected from light, for approximately 30 minutes. Medium was removed and 200 µL of fresh culture medium and 50 µL of resazurin solution were added to each well. Plates were incubated for a further 1 ½ hours. Cytotoxicity is indicated by decreased reduction of resazurin to its fluorescent product resorufin. The fluorescence was stabilized at room temperature for 15 minutes protected from light. […] Percentages of inhibition were calculated relative to the control wells.

[4] = system: P. falciparum asexual forms (3D7HT-GFP); test: In vitro antiplasmodial activity on asexual stages (uptake of radiolabeled nucleic acid precursor), 3D7HT-GFP; assay type: cell-based, Plasmodium falciparum; settings: read-out: IC50 Activity against asexual forms (3D7HT-GFP)
Protocol: as §1

HepG2 cells = test: Cytotoxicity, resazurin-based reductase assay; assay type: cell-based, human
Protocol: as §2, §3

late gametocytes = system: late gametocytes; design: method as in PMID 20149239; settings: flow cytometry assay; cited from earlier work
[5] = system: P. falciparum mature gametocytes; test: Microscopic enumeration of gametocytes on Giemsa-stained smears; assay type: cell-based, Plasmodium falciparum; settings: read-out: IC50 gametocytes Microscopy examination
Protocol: 100 µl of the culture (day 15, HT 6%) were plated in each well with the appropriate dilution of drug. 48 h after, 10 µl of each well was used to prepare a thin blood film and stain it with Giemsa. The number of gametocytes per 10,000–15,000 RBCs were counted and compared to the control (no drug, 0.5% DMSO).

gametocytes [6] = system: gametocytes; design: method as in PMID 21316401; settings: at 1 µM; cited from earlier work
gametocytes [7] = system: gametocytes; design: method as in PMID 17242150; settings: cited from earlier work
gametocytes [8] = settings: cited from earlier work
[9] = Plasmodium falciparum, mean ± SD, 3–6 independent experiments, serum-free (AlbuMAX II)
[10] = Plasmodium falciparum, 48 h, read-out: IC50 Activity against mature gametocytes IV–V, ATP bioluminescence, 48 h, 3D7HT-GFP, mean ± SD, 3–6 independent experiments
[11] = Plasmodium falciparum, 48 h, read-out: IC50 gametocytes ATP method, mature gametocytes, 48 h drug exposure (Table 1)
[12] = Plasmodium falciparum, mature gametocytes, 48 h incubation, Giemsa smear counting

Row | SMILES | IC50 [1, 9] | IC50 [2, 10] | IC50 at 48 h ([3]; HepG2 cells) | IC50 ([4]; Plasmodium falciparum) | other results
1 | CCCCN(CCCC)CCC(O)c1cc2c(Cl)cc(Cl)cc2c2cc(C(F)(F)F)ccc12 (stereo not drawn) [Halofantrine] | 0.0011 ± 0.0005 µM | 6.7 ± 0.42 µM | > 50 µM | 0.0012 ± 0.0005 µM | –
2 | CCc1nc(N)nc(N)c1-c1ccc(Cl)cc1 [Pyrimethamine] | – | > 50 µM | > 50 µM | 33.7 ± 6.72 µM | effect on mature gametocytes (in words) ([2]; 3D7HT-GFP line resistant to drugs acting on DHFR): did not have any effect
3 | C=C[C@H]1C[N@@]2CC[C@H]1C[C@H]2[C@H](O)c1ccnc2ccc(OC)cc12 [Quinine] | 0.066 ± 0.018 µM | – | > 50 µM | 0.106 ± 0.04 µM | –
4 | OC(c1cc(C(F)(F)F)nc2c(C(F)(F)F)cccc12)C1CCCCN1 (stereo not drawn) [Mefloquine] | 0.026 ± 0.017 µM | 4.9 µM | 11 ± 0.26 µM | 0.028 ± 0.0014 µM | IC50 ([2]; read-out: IC50 Activity against mature gametocytes IV–V, ATP bioluminescence, 48 h, 3D7HT-GFP, mean ± SD, 3–6 independent experiments): 4.7 ± 2.1 µM; selectivity ratio (IC50 in HepG2 cells / IC50 in P. falciparum gametocytes) (HepG2 cells; HepG2 versus mature gametocytes): 2.34
5 | C[C@@H]1CC[C@H]2[C@@H](C)C(=O)O[C@@H]3O[C@@]4(C)CC[C@@H]1[C@]32OO4 [artemisinin] | – | – | – | – | IC50 (late gametocytes): 1 µM
6 | COc1ccc2nc3cc(Cl)ccc3c(Nc3cc(CN4CCCC4)c(O)c(CN4CCCC4)c3)c2n1 [Pyronaridine] | 0.0045 ± 0.0015 µM | ~3.25 µM | 5.95 ± 0.92 µM | 0.0008 ± 0.0001 µM | –
7 | COc1cc(NC(C)CCCN)c2ncccc2c1 (stereo not drawn) [Primaquine] | > 10 µM | 20.9 ± 4.65 µM | – | > 10 µM | IC50 [2, 11]: 20.9 µM; IC50 [5, 12]: 87.9 µM; IC50 at 48 h [3]: > 50 µM
8 | C[C@H]1[C@@H](O)O[C@@H]2O[C@@]3(C)CC[C@H]4[C@H](C)CC[C@@H]1[C@@]24OO3 [Dihydroartemisinin] | 0.0028 ± 0.0007 µM | 3.56 ± 0.95 µM | > 50 µM | 0.013 ± 0.003 µM | IC50 [2, 11]: 3.56 µM; IC50 [5, 12]: 2.47 µM; inhibition of gametocytes (gametocytes [6]): 70.4%
9 | CN(C)c1ccc2nc3ccc(=[N+](C)C)cc-3sc2c1 [Methylene blue] | 0.011 ± 0.008 µM | 0.49 ± 0.16 µM | 6.52 ± 1.31 µM | 0.01 ± 0.0018 µM | IC50 [2, 11]: 0.49 µM; IC50 [5, 12]: 0.76 µM
10 | O=C1C(O)=C([C@H]2CC[C@H](c3ccc(Cl)cc3)CC2)C(=O)c2ccccc21 [Atovaquone] | 0.0007 ± 0.0004 µM | 16.1 ± 2.12 µM | > 40 µM | 0.0018 ± 0.0002 µM | cytotoxic effects (in words) (HepG2 cells; at the maximum solubility in culture media): No cytotoxic effects were detected
11 | CCCCN(CCCC)CC(O)c1cc(Cl)cc2c1-c1ccc(Cl)cc1/C2=C/c1ccc(Cl)cc1 (stereo not drawn) [Lumefantrine] | 0.0032 ± 0.00014 µM | > 50 µM | > 50 µM | 0.00165 ± 7e-05 µM | –
12 | CCN(CC)CCCC(C)Nc1ccnc2cc(Cl)ccc12 (stereo not drawn) [Chloroquine] | – | 23.5 ± 2.66 µM | – | 0.007 ± 0.002 µM | IC50 ([1]; Plasmodium falciparum): 0.006 ± 0.0002 µM; IC50 [2, 11]: 23.5 µM; IC50 ([5]; Plasmodium falciparum, 48 h): 28.4 µM
13 | CC[C@H](C)[C@H](NC(=O)[C@H]([C@@H](C)CC)N(C)C(C)=O)C(=O)N[C@H](C(=O)N[C@@H](CC(C)C)C(=O)[C@@]1(C)CO1)[C@@H](C)O [Epoxomicin] | – | – | – | – | IC50 [1]: 0.008 ± 0.001 µM; IC50 ([2]; ATP bioluminescence, 48 h, 3D7HT-GFP, mean ± SD, 3–6 independent experiments, read-out: IC50 Activity against mature gametocytes IV–V): 0.00042 ± 0.00011 µM; IC50 ([2]; mature gametocytes, 48 h drug exposure (Table 1), read-out: IC50 gametocytes ATP method): 0.00042 µM; IC50 ([5]; mature gametocytes, 48 h incubation, Giemsa smear counting): 0.0052 µM; IC50 (HepG2 cells; HepG2, 48 h exposure, resazurin, mean ± SD, 3–6 independent experiments): 0.003 ± 0.0005 µM; IC50 ([4]; mean ± SD, 3–6 independent experiments, serum-free (AlbuMAX II)): 0.0098 ± 0.0017 µM
14 | CCN(CC)Cc1ccc(Nc2ccnc3cc(Cl)ccc23)cc1O [Isoquine] | 0.009 ± 0.0016 µM | 28.5 ± 2.12 µM | 17.1 ± 6.3 µM | 0.0044 ± 0.0032 µM | –
15 | C[C@H]1[C@H](OC(=O)CCC(=O)O)O[C@@H]2O[C@@]3(C)CC[C@H]4[C@H](C)CC[C@@H]1[C@@]24OO3 [Artesunate] | 0.037 ± 0.025 µM | 10.8 ± 3.7 µM | > 50 µM | 0.054 ± 0.03 µM | IC50 [2, 11]: 10.8 µM; IC50 [5, 12]: 2.26 µM; IC50 (gametocytes [7]): 0.108 µM; IC50 on gametocytes (gametocytes [8]): 0.1 ng/mL (≈ 0.26 nM)
16 | CC[C@H]1OC(=O)[C@H](C)[C@@H](O[C@H]2C[C@@](C)(OC)[C@@H](O)[C@H](C)O2)[C@H](C)[C@@H](O[C@@H]2O[C@H](C)C[C@H](N(C)C)[C@H]2O)[C@](C)(O)C[C@@H](C)CN(C)[C@H](C)[C@@H](O)[C@]1(C)O [Azythromycin] | – | 28.4 ± 0.64 µM | > 50 µM | > 10 µM | IC50 ([1]; Plasmodium falciparum): > 10 µM
17 | C[C@@H]1C[C@@H]([C@H](O)CC2CC(=O)NC(=O)C2)C(=O)[C@@H](C)C1 [Cycloheximide] | – | – | – | 0.194 ± 0.0077 µM | IC50 ([1]; Plasmodium falciparum): 0.198 ± 0.0017 µM; IC50 ([2]; Plasmodium falciparum, 48 h, read-out: IC50 Activity against mature gametocytes IV–V): 6.23 ± 2.46 µM; IC50 at 48 h [3]: 2.95 ± 0.35 µM
